Data on 24 compounds can be found in ChEMBL document CHEMBL1201862, “PubChem BioAssay data set” (2004).

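Each compound was tested at five concentrations against cells in 96-well plates for 48 hours. At the GI50, growth is halved.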 Calls of active or inactive are those of the source. Rule as the data show it: active = GI50 up to about 1.1 µM and inactive = higher. Where only a bound is given, the exact number is not on record here.

Test systems include HOP-18; DMS-273; LXFL 529; KM-20L2; M19-MEL; DMS-114; SNB-78; XF498; RXF 631.
What all share (assay): inhibition of tumour cell growth, NCI panel, 48 h

On to `COc1ccc(CC#N)c(OCc2ccccc2)c1`, for which the GI50 is 14.2 µM (inactive) in the assay on HOP-18; 49.4 µM (inactive) in the assay with DMS-273; 20.2 µM (inactive) with LXFL 529; 31.3 µM (inactive) in the assay on KM-20L2; 29.3 µM (inactive) with M19-MEL; 30.8 µM (inactive) in the assay with DMS-114.
Regarding `Cc1ccc(-c2c(N)nc(NC#N)nc2CCC(=O)Nc2ccccc2[N+](=O)[O-])cc1`, the GI50 with HOP-18, in the assay with DMS-273, with LXFL 529, in the assay on SNB-78, in the assay with KM-20L2 and in the assay with M19-MEL was > 100 µM (inactive) throughout. Besides, in the assay with DMS-114, the GI50 is > 100 µM (inactive).
Consider `O=c1c2ccccc2oc2ccccc12.Oc1cccc2cccnc12`, for which the results for the GI50 in the assay on DMS-273, in the assay with LXFL 529 and in the assay on DMS-114 were 1.94 µM (inactive), 1.56 µM (inactive) and 1.63 µM (inactive), respectively.
On to `O=C(O)c1ccc(/N=N/c2cc(S(=O)(=O)O)c3cccnc3c2O)cc1`, for which the GI50 in the assay on XF498, in the assay with DMS-273, in the assay with SNB-78, with KM-20L2, in the assay on M19-MEL and in the assay with DMS-114 was > 100 µM (inactive) throughout.
Take `CCCCOC(=O)NC(=O)c1cn(CCSCCOC(=O)NCCCCCCNC(=O)OCCSCCn2cc(C(=O)NC(=O)OCCCC)c(=O)[nH]c2=O)c(=O)[nH]c1=O`: the GI50 is 31.6 µM (inactive) in the assay with HOP-18; 95.5 µM (inactive) in the assay with DMS-273; 27 µM (inactive) in the assay on LXFL 529; 90.4 µM (inactive) with SNB-78; > 100 µM (inactive) in the assay with KM-20L2; 38.4 µM (inactive) in the assay with RXF 631. Besides, the GI50 in the assay with M19-MEL was > 100 µM (inactive); in the assay on DMS-114, 93.8 µM (inactive).
For the compound `CCOc1ccc(NC2=NC(=O)C(CC(=O)Nc3ccc(Cl)cc3Cl)S2)cc1` (centres undefined), the GI50 in the assay with XF498, with DMS-273, with LXFL 529, in the assay on SNB-78, with KM-20L2 and in the assay with RXF 631 was > 100 µM (inactive) each time. Besides, the GI50 in the assay with M19-MEL and with DMS-114 was > 100 µM (inactive) each time.
For the compound `C[C@@H]1O[C@@H](O[C@H]2[C@H](Oc3cc(O)c4c(=O)cc(-c5ccc(O)cc5)oc4c3)O[C@H](CO)[C@@H](O)[C@@H]2O)[C@H](O)[C@H](O)[C@H]1O` [RHOIFOLIN], the GI50 with HOP-18, in the assay on XF498, in the assay on DMS-273, with LXFL 529, in the assay on SNB-78 and in the assay on KM-20L2 was > 100 µM (inactive) each time. For the same compound, the GI50 with M19-MEL and in the assay on DMS-114 was > 100 µM (inactive) throughout.
As to `COC(=O)C(C(=O)C(=O)Nc1nc2ccc(OC)cc2s1)c1cnc2ccccc2n1` (centres undefined), the GI50 with XF498, with LXFL 529, in the assay with SNB-78, with KM-20L2 and with M19-MEL was > 100 µM (inactive) each time.
As to `Cc1ccc(C(=O)c2nnc(C(=O)c3ccc(C)cc3)nn2)cc1`, the GI50 was 33.4 µM (inactive) with HOP-18; 39.4 µM (inactive) in the assay with DMS-273; 53.2 µM (inactive) with LXFL 529; > 100 µM (inactive) in the assay with SNB-78; 65.9 µM (inactive) in the assay on KM-20L2; 26.1 µM (inactive) in the assay with M19-MEL.
As to `CN(C)/N=N/c1[nH]cnc1C(N)=O` [DACARBAZINE], the GI50 in the assay with HOP-18 is 15.5 µM (inactive); in the assay on XF498 it was 21.8 µM (inactive); in the assay with DMS-273, 12.8 µM (inactive); with LXFL 529 it was 98.2 µM (inactive); with SNB-78 it was 63.2 µM (inactive); with KM-20L2, 53.6 µM (inactive). Moreover, the GI50 in the assay on RXF 631 was 54.1 µM (inactive); in the assay on M19-MEL it was 64.4 µM (inactive); in the assay with DMS-114, 71.3 µM (inactive).
On to `FC(F)(F)c1ccccc1C1SCc2nc3ccccc3n21` (centres undefined), for which the GI50 in the assay on HOP-18 was > 100 µM (inactive); in the assay on DMS-273 it was 38 µM (inactive); with LXFL 529, 99.8 µM (inactive); with SNB-78 it was > 100 µM (inactive); in the assay on M19-MEL it was 43.3 µM (inactive); with DMS-114 it was 33 µM (inactive).
Consider `O=C(O)CS` [THIOGLYCOLIC ACID], for which the GI50 in the assay with XF498, with DMS-273, in the assay with LXFL 529, in the assay on SNB-78, in the assay with KM-20L2 and with M19-MEL was > 100 µM (inactive) each time. Moreover, the GI50 with DMS-114 was > 100 µM (inactive).
As for `Cc1ccc(C(=O)N(C2CCCCC2)C2CCCCC2)cc1/N=N/N(C)C`, the GI50 in the assay on DMS-273 was 17.1 µM (inactive); in the assay with LXFL 529, 14.6 µM (inactive); in the assay on SNB-78, 15.8 µM (inactive); with M19-MEL, 19.1 µM (inactive).
Regarding `CCOC(=O)N1c2c(ccn2C)-c2ccn(C)c2N1C(=O)OCC`, the GI50 in the assay on XF498 is 17 µM (inactive); with LXFL 529, 17.2 µM (inactive); in the assay on KM-20L2, 14.6 µM (inactive); in the assay on RXF 631, 18.9 µM (inactive); in the assay on M19-MEL, 26.4 µM (inactive); with DMS-114 it was > 10 µM (inactive).
`CCOC(=O)C1C(c2ccccc2)=C(c2ccccc2)C(c2ccccc2)=C1c1ccccc1`: the GI50 was 23.7 µM (inactive) in the assay on HOP-18; 21.9 µM (inactive) in the assay on XF498; 31.3 µM (inactive) in the assay with DMS-273; 41.8 µM (inactive) with LXFL 529; 27.5 µM (inactive) in the assay with SNB-78; > 100 µM (inactive) with KM-20L2. The GI50 with RXF 631 is 50.5 µM (inactive); in the assay with M19-MEL it was 41.4 µM (inactive); with DMS-114, 27.8 µM (inactive).
For the compound `CN1CCN(CCSC2Cc3cc(Cl)ccc3Sc3ccccc32)CC1` (centres undefined), the GI50 was 9.1 µM (inactive) with HOP-18; 3.03 µM (inactive) in the assay with XF498; 2.1 µM (inactive) in the assay on DMS-273; 2.89 µM (inactive) in the assay on LXFL 529; 1.74 µM (inactive) in the assay with KM-20L2; 2.13 µM (inactive) with M19-MEL. The GI50 in the assay with DMS-114 was 4.9 µM (inactive).
With `CCOC(=O)N[C@H]1CCc2cc(O)c(OC)c(OC)c2-c2ccc(SC)c(=O)cc21`, the GI50 with XF498 is 0.0261 µM (active); with DMS-273, 0.0149 µM (active); in the assay on LXFL 529, < 0.0122 µM (active); in the assay on SNB-78, < 0.01 µM (active); in the assay with KM-20L2, 0.0128 µM (active); in the assay with RXF 631, 0.0207 µM (active). Also, the figures for the GI50 in the assay on M19-MEL and in the assay on DMS-114 were 0.0189 µM (active) and 0.0193 µM (active), respectively.
For the compound `O=C(O)CN(c1ccccc1)S(=O)(=O)c1ccc(Cl)cc1`, the GI50 in the assay with HOP-18, in the assay with DMS-273, in the assay on LXFL 529, with KM-20L2, with RXF 631 and in the assay on M19-MEL was > 100 µM (inactive) in each case.
For the compound `COc1cc2ccc(CC(=O)O)cc2cc1OC`, the GI50 with HOP-18, with DMS-273, with LXFL 529, in the assay with SNB-78, in the assay on KM-20L2 and in the assay on RXF 631 was > 100 µM (inactive) in each case. The GI50 with M19-MEL and with DMS-114 was > 100 µM (inactive) throughout.
Turning to `O=C(N[C@H](CO)[C@H](O)c1ccc([N+](=O)[O-])cc1)C(Cl)Cl` [CHLORAMPHENICOL], the GI50 in the assay with DMS-273, with LXFL 529, in the assay with KM-20L2, in the assay on M19-MEL and in the assay on DMS-114 was > 100 µM (inactive) in each case.
With `CN(C)c1snc2c1c(=O)n(C)c(=O)n2C`, the GI50 in the assay on HOP-18, in the assay with XF498, in the assay with DMS-273, with LXFL 529, in the assay with KM-20L2 and with RXF 631 was > 100 µM (inactive) in each case. Also, the GI50 with M19-MEL and in the assay with DMS-114 was > 100 µM (inactive) throughout.
As for `CN(C)CCC(=O)N1C/C(=C\c2ccc(Cl)c(Cl)c2)C(=O)/C(=C/c2ccc(Cl)c(Cl)c2)C1`, the GI50 in the assay on HOP-18 was 1.02 µM (active); in the assay on XF498, 1.12 µM (active); with DMS-273, 0.15 µM (active); in the assay on LXFL 529 it was 0.211 µM (active); with SNB-78 it was 0.476 µM (active); in the assay on KM-20L2, 0.577 µM (active). In addition, the GI50 in the assay on RXF 631 was 0.455 µM (active); in the assay with M19-MEL, 0.427 µM (active); in the assay on DMS-114, 0.452 µM (active).
Turning to `NC(=O)c1cc(C2OC(CO)C(O)C2O)nn1-c1ccc([N+](=O)[O-])cc1` (centres undefined), the GI50 with HOP-18 is > 100 µM (inactive); in the assay with XF498 it was > 100 µM (inactive); in the assay with DMS-273, > 100 µM (inactive); with LXFL 529 it was > 100 µM (inactive); in the assay with SNB-78, 36.7 µM (inactive); with KM-20L2, > 100 µM (inactive). For the same compound, the GI50 with DMS-114 is > 100 µM (inactive).
With `O=[N+]([O-])c1cccc(C2=NN(c3ccccc3)C3c4cc(Br)ccc4OCC23)c1` (centres undefined), the GI50 in the assay with HOP-18, in the assay with XF498, with DMS-273, in the assay with LXFL 529, with SNB-78 and in the assay on KM-20L2 was > 100 µM (inactive) in each case. In addition, the GI50 in the assay on M19-MEL and in the assay with DMS-114 was > 100 µM (inactive) in each case.
